molecular target: T1, human GLP-1 receptor (Homo sapiens, UniProt P43220); experiment: GLP-1R cAMP Assay; assay type: cell-based; details: cAMP accumulation in CHO cells stably overexpressing the human GLP-1 receptor; 30 min treatment; HitHunter cAMP kit; read-out: EC50
T1 construct: expressed in transfected cells
How it was run: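 CHO cells stably overexpressing human GLP-1R, 10,000 cells/well, treated with compound in 20-point dose response in triplicate for 30 min. cAMP accumulation read by enzyme-complementation luminescence after lysis and overnight incubation; dose-response curves fitted.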

T1 sequence (P43220 24-463): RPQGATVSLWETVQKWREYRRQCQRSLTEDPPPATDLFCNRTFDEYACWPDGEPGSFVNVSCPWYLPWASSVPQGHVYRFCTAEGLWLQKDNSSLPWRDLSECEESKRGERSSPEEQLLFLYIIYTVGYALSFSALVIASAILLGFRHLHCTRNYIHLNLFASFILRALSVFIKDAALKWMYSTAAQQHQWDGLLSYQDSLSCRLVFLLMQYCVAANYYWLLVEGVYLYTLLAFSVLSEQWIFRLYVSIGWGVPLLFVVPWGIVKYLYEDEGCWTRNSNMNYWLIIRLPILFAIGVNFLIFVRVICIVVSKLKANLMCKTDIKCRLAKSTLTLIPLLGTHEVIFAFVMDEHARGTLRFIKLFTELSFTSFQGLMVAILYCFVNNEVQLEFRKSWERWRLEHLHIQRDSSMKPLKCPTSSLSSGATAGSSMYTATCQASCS

| SMILES | EC50 [µM] |
| --- | --- |
| N#Cc1cc(Cl)ccc1OCc1cccc(CC2CCN(Cc3nc4ccc(C(=O)O)cc4n3C[C@@H]3CCO3)CC2)c1 [Compound 166, 2-{[4-({3-[(4-chloro-2-cyanophenoxy)methyl]phenyl}methyl)piperidin-1-yl]methyl}-1-{[(2S)-oxetan-2-yl]methyl}-1H-1,3-benzodiazole-6-carboxylic acid] | < 0.05 |
| O=C(O)c1cc(F)c2nc(CN3CCC(Oc4ccnc(COc5ccc(C(F)F)cc5F)n4)CC3)n(C[C@@H]3CCO3)c2c1 [Compound 312, 2-({4-[(2-{[4-(difluoromethyl)-2-fluorophenoxy]methyl}pyrimidin-4-yl)oxy]piperidin;-1-yl}methyl)-1-{[(2S)-oxetan-2-yl]methyl}-1H-1,3-benzodiazole-6-carboxylic acid] | < 0.05 |
| CCn1cncc1Cn1c(CN2CCC(C(O)c3cccc(COc4ccc(C)cc4Cl)c3)CC2)nc2ccc(C(=O)O)cc21 (racemic) [Example 130, 2-((4-((3-((2-Chloro-4-methylphenoxy)methyl)phenyl)(hydroxy)methyl)piperidin-1-yl)methyl)-1-((1-ethyl-1H-imidazol-5-yl)methyl)-1H-benzo[d]imidazole-6-carboxylic acid] | < 0.05 |
| CCn1cncc1Cn1c(CN2CCN(C(=O)c3cc(N(C)c4ccc(C)cc4Cl)ccc3C)CC2)nc2ccc(C(=O)O)cc21 [Compound 76, 2-[(4-{5-[(2-chloro-4-methylphenyl)(methyl)amino]-2-methylbenzoyl}piperazin-1-yl)methyl]-1-[(1-ethyl-1H-imidazol-5-yl)methyl]-1H-1,3-benzodiazole-6-carboxylic acid] | < 0.05 |
| O=C(O)c1ccc2nc(CN3CCN(C(=O)c4ncc(COc5ccc(Cl)cc5Cl)o4)CC3)n(C[C@@H]3CCO3)c2c1 [Compound 113, 2-[(4-{5-[(2,4-dichlorophenoxy)methyl]-1,3-oxazole-2-carbonyl}piperazin-1-yl)methyl]-1-{[(2S)-oxetan-2-yl]methyl}-1H-1,3-benzodiazole-6-carboxylic acid] | > 0.5 |
| CCn1cncc1Cn1c(CN2CCC(Oc3cccc(COc4ncc(Cl)cc4F)c3)CC2)nc2ccc(C(=O)O)cc21 [Compound 294] | 0.05 to 0.5 |
| N#Cc1ccc(OCc2nccc(OC3CCN(Cc4nc5ncc(C(=O)O)cc5n4C[C@@H]4CCO4)CC3)n2)c(F)c1 [Example 486, (S)-2-((4-((2-((4-Cyano-2-fluorophenoxy)methyl)pyrimidin-4-yl)oxy)piperidin-1-yl)methyl)-1-(oxetan-2-ylmethyl)-1H-imidazo[4,5-b]pyridine-6-carboxylic acid] | < 0.05 |
| N#Cc1cc(Cl)ccc1OCc1nccc(OC2CCN(Cc3nc4ccc(C(=O)O)cc4n3C[C@@H]3CCO3)CC2)n1 [Compound 481, 2-{[4-({2-[(4-chloro-2-cyanophenoxy)methyl]pyrimidin-4-yl}oxy)piperidin-1-yl]methyl}-1-{[(2S)-oxetan-2-yl]methyl}-1H-1,3-benzodiazole-6-carboxylic acid] | < 0.05 |
| O=C(O)c1ccc2nc(CN3CCN(C(=O)c4ccc(COc5cccc(Cl)c5)o4)CC3)n(C[C@@H]3CCO3)c2c1 [Compound 40, 2-[(4-{5-[(3-chlorophenoxy)methyl]furan-2-carbonyl}piperazin-1-yl)methyl]-1-{[(2S)-oxetan-2-yl]methyl}-1H-1,3-benzodiazole-6-carboxylic acid] | > 0.5 |
| O=C(O)c1ccc2nc(CN3CCN(C(=O)c4cccc(Cc5ccc(F)cc5)c4)CC3)n(C[C@@H]3CCO3)c2c1 [Compound 3, 2-[(4-{3-[(4-fluorophenyl)methyl]benzoyl}piperazin-1-yl)methyl]-1-{[(2S)-oxetan-2-yl]methyl}-1H-1,3-benzodiazole-6-carboxylic acid] | > 0.5 |
| CCn1cncc1Cn1c(CN2CCN(C(=O)c3cccc(OCc4ccc(C#N)cc4F)c3)CC2)nc2ccc(C(=O)O)cc21 [Compound 67, 2-[(4-{3-[(4-cyano-2-fluorophenyl)methoxy]benzoyl}piperazin-1-yl)methyl]-1-[(1-ethyl-1H-imidazol-5-yl)methyl]-1H-1,3-benzodiazole-6-carboxylic acid] | > 0.5 |
| COC(=O)c1ccc2nc(CN3CCN(C(=O)c4ccc(COc5cccc(Cl)c5C)o4)CC3)n(C[C@@H]3CCO3)c2c1 [Compound 24, methyl 2-[(4-{5-[(3-chloro-2-methylphenoxy)methyl]furan-2-carbonyl}piperazin-1-yl)methyl]-1-{[(2S)-oxetan-2-yl]methyl}-1H-1,3-benzodiazole-6-carboxylate] | > 0.5 |
| O=C(O)c1cc(F)c2nc(CN3CCC(N(CC4CC4)c4ccnc(COc5ccc(Cl)cc5F)n4)CC3)n(C[C@@H]3CCO3)c2c1 [Compound 511, 2-{[4-({2-[(4-chloro-2-fluorophenoxy)methyl]pyrimidin-4-yl}(cyclopropylmethyl)amino)piperidin-1-yl]methyl}-4-fluoro-1-{[(2S)-oxetan-2-yl]methyl}-1H-1,3-benzodiazole-6-carboxylic acid] | < 0.05 |
| O=C(O)c1ccc2nc(CN3CCC(Oc4ccnc(COc5ccc(Cl)cc5F)c4)CC3)n(Cc3ncco3)c2c1 [Compound 258, 2-{[4-({2-[(4-chloro-2-fluorophenoxy)methyl]pyridin-4-yl}oxy)piperidin-1-yl]methyl}-1-[(1,3-oxazol-2-yl)methyl]-1H-1,3-benzodiazole-6-carboxylic acid] | < 0.05 |
| O=C(O)c1ccc2nc(CN3CCN(C(=O)c4ccc(COc5ccccc5Cl)o4)CC3)n(C[C@@H]3CCO3)c2c1 [Compound 39, 2-[(4-{5-[(2-chlorophenoxy)methyl]furan-2-carbonyl}piperazin-1-yl)methyl]-1-{[(2S)-oxetan-2-yl]methyl}-1H-1,3-benzodiazole-6-carboxylic acid] | > 0.5 |
| O=C(O)c1ccc2nc(CN3CCC(Oc4cccc(COc5cccc(Cl)c5Cl)c4)CC3)n(C[C@@H]3CCO3)c2c1 [Compound 243, 2-[(4-{3-[(2,3-dichlorophenoxy)methyl]phenoxy}piperidin-1-yl)methyl]-1-{[(2S)-oxetan-2-yl]methyl}-1H-1,3-benzodiazole-6-carboxylic acid] | < 0.05 |
| Cc1ccccc1Oc1cccc(C(=O)N2CCN(Cc3nc4ccc(C(=O)O)cc4n3C[C@@H]3CCO3)CC2)c1 [Example 14, (S)-1-(Oxetan-2-ylmethyl)-2-((4-(3-(o-tolyloxy)benzoyl)piperazin-1-yl)methyl)-1H-benzo[d]imidazole-6-carboxylic acid] | > 0.5 |
| N#Cc1cc(F)ccc1OCc1nccc(OC2CCN(Cc3nc4ccc(C(=O)O)cc4n3C[C@@H]3CCO3)CC2)n1 [Compound 306] | < 0.05 |
| C[C@H]1C[C@@H](Oc2ccnc(COc3ccc(F)cc3F)c2)CCN1Cc1nc2ccc(C(=O)O)cc2n1C[C@@H]1CCO1 [Compound 497, 2-{[(2S,4S)-4-({2-[(2,4-difluorophenoxy)methyl]pyridin-4-yl}oxy)-2-methylpiperidin-1-yl]methyl}-1-{[(2S)-oxetan-2-yl]methyl}-1H-1,3-benzodiazole-6-carboxylic acid] | < 0.05 |
| CCn1cncc1Cn1c(CN2CCC(=Cc3ccnc(COc4ccc(Cl)cc4Cl)c3)CC2)nc2ccc(C(=O)O)cc21 [Example 155, 2-((4-((2-((2,4-Dichlorophenoxy)methyl)pyridin-4-yl)methylene)piperidin-1-yl)methyl)-1-((1-ethyl-1H-imidazol-5-yl)methyl)-1H-benzo[d]imidazole-6-carboxylic acid] | < 0.05 |
| CCn1cncc1Cn1c(CN2CCN(C(=O)c3cccc(COc4ccc(C)cc4Cl)c3)CC2)nc2ccc(C(=O)O)cc21 [Compound 65, 2-[(4-{3-[(2-chloro-4-methylphenoxy)methyl]benzoyl}piperazin-1-yl)methyl]-1-[(1-ethyl-1H-imidazol-5-yl)methyl]-1H-1,3-benzodiazole-6-carboxylic acid] | 0.05 to 0.5 |
| Cc1ccc(N(C)c2cccc(S(=O)(=O)N3CCN(Cc4nc5ccc(C(=O)O)cc5n4C[C@@H]4CCO4)CC3)c2)c(Cl)c1 [Compound 86, 2-[(4-{3-[(2-chloro-4-methylphenyl)(methyl)amino]benzenesulfonyl}piperazin-1-yl)methyl]-1-{[(2S)-oxetan-2-yl]methyl}-1H-1,3-benzodiazole-6-carboxylic acid] | > 0.5 |
| O=C(O)c1cc(F)c2nc(CN3CCC(Oc4cccc(COc5ccc(C(F)F)cc5F)c4)CC3)n(C[C@@H]3CCO3)c2c1 [Compound 310] | < 0.05 |
| C[C@H]1C[C@H](Oc2cccc(COc3ccc(Cl)cc3Cl)c2)CCN1Cc1nc2ccc(C(=O)O)cc2n1C[C@@H]1CCO1 [Compound 254, 2-{[(2S,4R)-4-{3-[(2,4-dichlorophenoxy)methyl]phenoxy}-2-methylpiperidin-1-yl]methyl}-1-{[(2S)-oxetan-2-yl]methyl}-1H-1,3-benzodiazole-6-carboxylic acid] | < 0.05 |
| O=C(O)c1ccc2nc(CN3CCC(Cc4cnc(COc5ncc(C6CC6)cc5Cl)o4)CC3)n(C[C@@H]3CCO3)c2c1 [Example 136, (S)-2-((4-((2-(((3-Chloro-5-cyclopropylpyridin-2-yl)oxy)methyl)oxazol-5-yl)methyl)piperidin-1-yl)methyl)-1-(oxetan-2-ylmethyl)-1H-benzo[d]imidazole-6-carboxylic acid] | < 0.05 |
| Cc1cc(C(=O)O)cc2c1nc(CN1CCC(Oc3ccnc(COc4ccc(C#N)cc4F)c3)CC1)n2C[C@@H]1CCO1 [Compound 499, 2-{[4-({2-[(4-cyano-2-fluorophenoxy)methyl]pyridin-4-yl}oxy)piperidin-1-yl]methyl}-4-methyl-1-{[(2S)-oxetan-2-yl]methyl}-1H-1,3-benzodiazole-6-carboxylic acid] | < 0.05 |
| N#Cc1cc(F)c(OCc2nccc(OC3CCN(Cc4nc5c(F)cc(C(=O)O)cc5n4C[C@@H]4CCO4)CC3)n2)cc1F [Compound 502, 2-{[4-({2-[(4-cyano-2,5-difluorophenoxy)methyl]pyrimidin-4-yl}oxy)piperidin-1-yl]methyl}-4-fluoro-1-{[(2S)-oxetan-2-yl]methyl}-1H-1,3-benzodiazole-6-carboxylic acid] | < 0.05 |
